Test results as given in patent publication US20260022143A1, “Cyclic Peptide Inhibitors of IL-23” (JANSSEN PHARMACEUTICA NV, priority 2022, published 2026).
Starred links: 1 amine or outer side, 2 acyl side, 3 side chain; linkers in the order of their positions; H or OH if unused. Positions of bridges follow the written chain, without caps; N, C: chain ends. Non-standard residues stand in square brackets, D forms with d. Residues, ends and D or L forms follow the SMILES beside them. *: point of attachment. X62 = C[N+]1(CCCCc2cn(-c3ccc(C[C@H](N[*:1])C(=O)[*:2])cc3)nn2)CCOCC1; X43 = C[N+](C)(C)CCCCCc1cn(-c2ccc(C[C@H](N[*:1])C(=O)[*:2])cc2)nn1; X27 = C[N+](C)(C)CCc1cn(-c2ccc(C[C@H](N[*:1])C(=O)[*:2])cc2)nn1; X16 = C[N+](C)(C)Cc1cn(-c2ccc(C[C@H](N[*:1])C(=O)[*:2])cc2)nn1; Me3N+(CH2)2O(CH2)2O(CH2)2CO = C[N+](C)(C)CCOCCOCCC(=O)*; Phe(4-N3) = [N-]=[N+]=Nc1ccc(C[C@H](N)C(=O)O)cc1; Trp(7-Me) = Cc1cccc2c(C[C@H](N)C(=O)O)c[nH]c12; d(hLys(Me3)) = C[N+](C)(C)CCCCC[C@@H](N)C(=O)O; Hexanoyl(6-NMe3+) = C[N+](C)(C)CCCCCC(=O)*; 2Nal = N[C@@H](Cc1ccc2ccccc2c1)C(=O)O; 3Pal = N[C@@H](Cc1cccnc1)C(=O)O; Cit = NC(=O)NCCC[C@H](N)C(=O)O; Lys(Me) = CNCCCC[C@H](N)C(=O)O; Pen = CC(C)(S)[C@H](N)C(=O)O; Thp = NC1(C(=O)O)CCOCC1; X3 = C[N+](C)(C)CCCCC*; Aib = CC(C)(N)C(=O)O; Sar = CNCC(=O)O

Columns and labels:
IL-23R = molecular target: T1, IL-23R (Homo sapiens, UniProt Q5VWK5); test: IL23R Reporter Assay; assay type: cell-based; details: HEK293 cells containing IL-23R, IL-12RP1 and STAT-inducible firefly luciferase reporter; 10 ng/mL IL-23 (EC90); 5 h at 37° C.; read-out: IL23R Reporter Assay
T1 construct: host or cells: HEK293
T1 sequence (Q5VWK5 24-629): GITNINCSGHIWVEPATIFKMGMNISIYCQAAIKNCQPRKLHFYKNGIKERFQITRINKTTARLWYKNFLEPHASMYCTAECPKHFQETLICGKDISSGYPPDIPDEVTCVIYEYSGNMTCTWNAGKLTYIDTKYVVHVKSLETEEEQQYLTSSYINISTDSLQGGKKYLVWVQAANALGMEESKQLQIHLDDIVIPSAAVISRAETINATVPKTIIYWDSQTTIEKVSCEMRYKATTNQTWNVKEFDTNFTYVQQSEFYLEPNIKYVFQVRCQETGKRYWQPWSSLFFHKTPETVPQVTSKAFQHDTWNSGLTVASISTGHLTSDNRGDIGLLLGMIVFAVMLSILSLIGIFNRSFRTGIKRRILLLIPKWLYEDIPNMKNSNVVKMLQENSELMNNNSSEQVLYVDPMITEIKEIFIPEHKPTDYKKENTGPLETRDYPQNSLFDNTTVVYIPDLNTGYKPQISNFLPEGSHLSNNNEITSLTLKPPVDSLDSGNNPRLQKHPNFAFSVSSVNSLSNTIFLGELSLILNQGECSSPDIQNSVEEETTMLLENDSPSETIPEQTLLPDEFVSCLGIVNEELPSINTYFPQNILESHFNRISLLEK

[1] = Exposed Polar Surface Area (EPSA); assay type: physicochemical; details: SFC on Chirex 3014 column; sample 1 mM DMSO stock; read-out: EPSA
How it was run: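 Polarity descriptor in Å² derived from retention time using 8 calibration standards re-run every 20 compounds. Duplicate injections of 1 mM DMSO stock; linear 5–60% modifier gradient (20 mM ammonium formate in MeOH) with CO2 at 4 mL/min, 35 °C, on a Chirex 3014 column.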

Row | Compound | IC50 (IL-23R) [nM] | EPSA [1] [A^2]
1 | CC(=O)N(C)CCCC[C@@H]1NC(=O)[C@H](Cc2c[nH]c3c(C)cccc23)NC(=O)[C@H]([C@@H](C)O)NC(=O)[C@H](CC(=O)N(C)C)NC(=O)[C@@H](NC(=O)CCOCCOCC[N+](C)(C)C)C(C)(C)SSC(C)(C)[C@@H](C(=O)N[C@@H](Cc2ccc(-n3cc(CC[N+](C)(C)C)nn3)cc2)C(=O)N[C@@H](Cc2ccc3ccccc3c2)C(=O)NC2(C(=O)N[C@@H](CCCCN(C)C(C)=O)C(=O)N[C@@H](CC(N)=O)C(=O)N[C@@H](Cc3cccnc3)C(=O)N(C)CC(=O)N(C)C)CCOCC2)NC1=O [compound 333, cPEG3aCO-Pen(3)-N(N(Me)2)-T-7MeW-K(NMeAc)-Pen(3)-F(4TzlTMA2)-2Nal-THP-K(NMeAc)-N-3Pya-Sar-CON(Me)2] ({Me3N+(CH2)2O(CH2)2O(CH2)2CO}-[Pen]D(NMe2)T[Trp(7-Me)][Lys(Me)](Ac)[Pen][X27][2Nal][Thp][Lys(Me)](Ac)N[3Pal][Sar]-NMe2; disulfide 1-6) | 1.8 | 159
2 | CC(=O)N(C)CCCC[C@@H]1NC(=O)[C@H](Cc2c[nH]c3c(C)cccc23)NC(=O)[C@H]([C@@H](C)O)NC(=O)[C@H](CC(=O)N(C)C)NC(=O)[C@@H](NC(=O)CCOCCOCC[N+](C)(C)C)C(C)(C)SSC(C)(C)[C@@H](C(=O)N[C@@H](Cc2ccc(-n3cc(CCCC[N+]4(C)CCOCC4)nn3)cc2)C(=O)N[C@@H](Cc2ccc3ccccc3c2)C(=O)NC2(C(=O)N[C@@H](CCCCN(C)C(C)=O)C(=O)N[C@@H](CC(N)=O)C(=O)N[C@@H](Cc3cccnc3)C(=O)N(C)CC(=O)N(C)C)CCOCC2)NC1=O [compound 336, cPEG3aCO-Pen(3)-N(N(Me)2)-T-7MeW-K(NMeAc)-Pen(3)-F(4TzlMMo4)-2Nal-THP-K(NMeAc)-N-3Pya-Sar-CON(Me)2] ({Me3N+(CH2)2O(CH2)2O(CH2)2CO}-[Pen]D(NMe2)T[Trp(7-Me)][Lys(Me)](Ac)[Pen][X62][2Nal][Thp][Lys(Me)](Ac)N[3Pal][Sar]-NMe2; disulfide 1-6) | 1.5 | 156
3 | CC(=O)N(C)CCCC[C@@H]1NC(=O)[C@H](Cc2c[nH]c3c(C)cccc23)NC(=O)[C@H]([C@@H](C)O)NC(=O)[C@H](CC(=O)N(C)C)NC(=O)[C@@H](NC(=O)CCCCC[N+](C)(C)C)C(C)(C)SSC(C)(C)[C@@H](C(=O)N[C@@H](Cc2ccc(OCCCCC[N+](C)(C)C)cc2)C(=O)N[C@@H](Cc2ccc3ccccc3c2)C(=O)NC2(C(=O)N[C@@H](CCCCN(C)C(C)=O)C(=O)N[C@@H](CC(N)=O)C(=O)N[C@@H](Cc3cccnc3)C(=O)N(C)CC(=O)N(C)C)CCOCC2)NC1=O [compound 343, 5cpaCO-Pen(3)-N(N(Me)2)-T-7MeW-K(NMeAc)-Pen(3)-TMAPF-2Nal-THP-K(NMeAc)-N-3Pya-Sar-CON(Me)2] ({Hexanoyl(6-NMe3+)}-[Pen]D(NMe2)T[Trp(7-Me)][Lys(Me)](Ac)[Pen]Y(X3)[2Nal][Thp][Lys(Me)](Ac)N[3Pal][Sar]-NMe2; disulfide 1-6) | 2 | 156
4 | CC(=O)N[C@H](CCCCC[N+](C)(C)C)C(=O)N[C@@H]1C(=O)N[C@@H](CC(=O)N(C)C)C(=O)N[C@@H]([C@@H](C)O)C(=O)N[C@@H](Cc2c[nH]c3c(C)cccc23)C(=O)N[C@@H](CCCCN(C)C(C)=O)C(=O)N[C@H](C(=O)N[C@@H](Cc2ccc(OCCCCC[N+](C)(C)C)cc2)C(=O)N[C@@H](Cc2ccc3ccccc3c2)C(=O)NC2(C(=O)N[C@@H](CCCCN(C)C(C)=O)C(=O)N[C@@H](CC(N)=O)C(=O)N[C@@H](Cc3cccnc3)C(=O)N(C)CC(=O)N(C)C)CCOCC2)C(C)(C)SSC1(C)C [compound 344, MeCO-hk(Me)3-Pen(3)-N(N(Me)2)-T-7MeW-K(NMeAc)-Pen(3)-TMAPF-2Nal-THP-K(NMeAc)-N-3Pya-Sar-CON(Me)2] (Ac-[d(hLys(Me3))][Pen]D(NMe2)T[Trp(7-Me)][Lys(Me)](Ac)[Pen]Y(X3)[2Nal][Thp][Lys(Me)](Ac)N[3Pal][Sar]-NMe2; disulfide 2-7) | 6.6 | 158
5 | CC(=O)N(C)CCCC[C@H](NC(=O)C1(NC(=O)[C@H](Cc2ccc3ccccc3c2)NC(=O)[C@H](Cc2ccc(OCCCCC[N+](C)(C)C)cc2)NC(=O)[C@H]2NC(=O)[C@H](CCCNC(N)=O)NC(=O)[C@H](Cc3c[nH]c4c(C)cccc34)NC(=O)[C@H]([C@@H](C)O)NC(=O)[C@H](CC(=O)N(C)C)NC(=O)[C@@H](NC(=O)CCOCCOCC[N+](C)(C)C)C(C)(C)SSC2(C)C)CCOCC1)C(=O)N[C@@H](CC(N)=O)C(=O)N[C@@H](Cc1cccnc1)C(=O)N(C)CC(=O)N(C)C [compound 346, cPEG3aCO-Pen(3)-N(N(Me)2)-T-7MeW-Cit-Pen(3)-TMAPF-2Nal-THP-K(NMeAc)-N-3Pya-Sar-CON(Me)2] ({Me3N+(CH2)2O(CH2)2O(CH2)2CO}-[Pen]D(NMe2)T[Trp(7-Me)][Cit][Pen]Y(X3)[2Nal][Thp][Lys(Me)](Ac)N[3Pal][Sar]-NMe2; disulfide 1-6) | 1.8 | 158

Stronger by IC50 (IL-23R), values ahead:

Row | IC50 (IL-23R) [nM] | EPSA [1] [A^2] | Compound
6 | 1.2 | 153 | CC(=O)N(C)CCCC[C@@H]1NC(=O)[C@H](Cc2c[nH]c3c(C)cccc23)NC(=O)[C@H]([C@@H](C)O)NC(=O)[C@H](CC(=O)N(C)C)NC(=O)[C@@H](NC(=O)CCOCCOCC[N+](C)(C)C)C(C)(C)SSC(C)(C)[C@@H](C(=O)N[C@@H](Cc2ccc(N=[N+]=[N-])cc2)C(=O)N[C@@H](Cc2ccc3ccccc3c2)C(=O)NC2(C(=O)N[C@@H](CCCCN(C)C(C)=O)C(=O)N[C@@H](CC(N)=O)C(=O)N[C@@H](Cc3cccnc3)C(=O)N(C)CC(=O)N(C)C)CCOCC2)NC1=O [compound 331, cPEG3aCO-Pen(3)-N(N(Me)2)-T-7MeW-K(NMeAc)-Pen(3)-F(4N3)-2Nal-THP-K(NMeAc)-N-3Pya-Sar-CON(Me)2] ({Me3N+(CH2)2O(CH2)2O(CH2)2CO}-[Pen]D(NMe2)T[Trp(7-Me)][Lys(Me)](Ac)[Pen][Phe(4-N3)][2Nal][Thp][Lys(Me)](Ac)N[3Pal][Sar]-NMe2; disulfide 1-6)
7 | 1.2 | 158 | CC(=O)N(C)CCCC[C@@H]1NC(=O)[C@H](Cc2c[nH]c3c(C)cccc23)NC(=O)[C@H]([C@@H](C)O)NC(=O)[C@H](CC(=O)N(C)C)NC(=O)[C@@H](NC(=O)CCOCCOCC[N+](C)(C)C)C(C)(C)SSC(C)(C)[C@@H](C(=O)N[C@@H](Cc2ccc(-n3cc(C[N+](C)(C)C)nn3)cc2)C(=O)N[C@@H](Cc2ccc3ccccc3c2)C(=O)NC2(C(=O)N[C@@H](CCCCN(C)C(C)=O)C(=O)N[C@@H](CC(N)=O)C(=O)N[C@@H](Cc3cccnc3)C(=O)N(C)CC(=O)N(C)C)CCOCC2)NC1=O [compound 332, cPEG3aCO-Pen(3)-N(N(Me)2)-T-7MeW-K(NMeAc)-Pen(3)-F(4TzlTMA1)-2Nal-THP-K(NMeAc)-N-3Pya-Sar-CON(Me)2] ({Me3N+(CH2)2O(CH2)2O(CH2)2CO}-[Pen]D(NMe2)T[Trp(7-Me)][Lys(Me)](Ac)[Pen][X16][2Nal][Thp][Lys(Me)](Ac)N[3Pal][Sar]-NMe2; disulfide 1-6)
8 | 1.2 | 153 | CC(=O)N(C)CCCC[C@@H]1NC(=O)[C@H](Cc2c[nH]c3c(C)cccc23)NC(=O)[C@H]([C@@H](C)O)NC(=O)[C@H](CC(=O)N(C)C)NC(=O)[C@@H](NC(=O)CCOCCOCC[N+](C)(C)C)C(C)(C)SSC(C)(C)[C@@H](C(=O)N[C@@H](Cc2ccc(-n3cc(CCCCC[N+](C)(C)C)nn3)cc2)C(=O)N[C@@H](Cc2ccc3ccccc3c2)C(=O)NC2(C(=O)N[C@@H](CCCCN(C)C(C)=O)C(=O)N[C@@H](CC(N)=O)C(=O)N[C@@H](Cc3cccnc3)C(=O)N(C)CC(=O)N(C)C)CCOCC2)NC1=O [compound 335, cPEG3aCO-Pen(3)-N(N(Me)2)-T-7MeW-K(NMeAc)-Pen(3)-F(4TzlTMA5)-2Nal-THP-K(NMeAc)-N-3Pya-Sar-CON(Me)2] ({Me3N+(CH2)2O(CH2)2O(CH2)2CO}-[Pen]D(NMe2)T[Trp(7-Me)][Lys(Me)](Ac)[Pen][X43][2Nal][Thp][Lys(Me)](Ac)N[3Pal][Sar]-NMe2; disulfide 1-6)
9 | 0.97 | 153 | CC(=O)N(C)CCCC[C@@H]1NC(=O)[C@H](Cc2c[nH]c3c(C)cccc23)NC(=O)[C@H]([C@@H](C)O)NC(=O)[C@H](CC(=O)N(C)C)NC(=O)[C@@H](NC(=O)CCOCCOCC[N+](C)(C)C)C(C)(C)SSC(C)(C)[C@@H](C(=O)N[C@@H](Cc2ccc(OCCCCC[N+](C)(C)C)cc2)C(=O)N[C@@H](Cc2ccc3ccccc3c2)C(=O)NC(C)(C)C(=O)N[C@@H](CCCCN(C)C(C)=O)C(=O)N[C@@H](CC(N)=O)C(=O)N[C@@H](Cc2cccnc2)C(=O)N(C)CC(=O)N(C)C)NC1=O [compound 341, cPEG3aCO-Pen(3)-N(N(Me)2)-T-7MeW-K(NMeAc)-Pen(3)-TMAPF-2Nal-Aib-K(NMeAc)-N-3Pya-Sar-CON(Me)2] ({Me3N+(CH2)2O(CH2)2O(CH2)2CO}-[Pen]D(NMe2)T[Trp(7-Me)][Lys(Me)](Ac)[Pen]Y(X3)[2Nal][Aib][Lys(Me)](Ac)N[3Pal][Sar]-NMe2; disulfide 1-6)
